PubChem BioAssay AID1918936 (Molecular Pharmacology Branch, DTP, NCI, 2023)
pIC50: −log10 of the molar value.

Test system: 349418-098-R-PDC complex spheroid viability
Assay: Anticancer human tumor 349418-098-R-PDC patient-derived lung adenocarcinoma cell line growth inhibition
Conditions: for pIC50: curve of first compound; for viability, T/C: stronger effect = lower value; active means viability on the fitted dose curve at most 10% of control; inactive means the rest
From the text: Multicellular complex tumor spheroid response to LSD1 Inhibitor Iadademstat in combination with a variety of drugs and investigational agents in selected tumor cell lines
The current study was undertaken to assess response to LSD1 inhibitors in combination with standard-of-care drugs and investigational agents in solid tumor complex spheroid models as well as in the K-562 leukemia. Complex spheroids include a stromal component modeled by human endothelial cells (HUVEC) and fibroblasts modeled by human mesenchymal stem cells (MSCs). The concentration ranges selected for each drug and investigational agent were based upon clinically achievable concentrations if the clinical Cmax of the agent was known.
Compounds. The drugs and investigational agents used in this study are listed on Table 1. All of the agents used, including staurosporine (NSC755774) and gemcitabine (NSC613327), were obtained from the Developmental Therapeutics Program, NCI. FDA-approved anticancer drugs are available from the NCI at http://dtp.nci.nih.gov/branches/dscb/oncology_drugset_explanation.html. Drugs and investigational agents were >95% pure by proton nuclear magnetic resonance (NMR) and liquid chromatography/mass spectrometry (LC/MS). Stock solutions were prepared at 400x in DMSO, stored at -70 degrees C, and diluted in fresh medium prior to their use. The final concentration of DMSO in cell culture wells never exceeded 0.25% (v/v). The FDA-approved anticancer drug set is available from the Developmental Therapeutics Program at https://dtp.cancer.gov/organization/dscb/obtaining/available_plates.htm. All drugs and investigational agents were tested over a range starting from a high concentration at or near the clinical Cmax and decreasing in half-log increments. If the clinical Cmax for an agent had not been determined, the highest concentration tested was 10 microM.
Cell Lines. The patient-derived cancer cell (PDC) lines: 292921-168-R-J2-PDC, K24384-001-R-PDC, and 521955-158-R2-J5-PDC pancreatic carcinomas, 556581-035-R-J1 ovarian carcinoma, 324938-238-R-J1-PDC, 855422-203-R-J1-PDC and 883617-216-R-J1-PDC urothelial bladder carcinomas, 743489-274-T-PDC renal cell carcinoma, 138582-R-J1 Merkel cell tumor, K60290-347-R-J1 and K57222-313-R-J1-PDC glioblastomas, 653999-131-R-J2-PDC, LG0703-F948-PDC, and 349418-098-R-PDC non-small cell lung carcinomas, 885512-296-R-J2-PDC, 171881-019-R-J1-PDC breast carcinomas and 186277-243-T-J2-PDC and 233499-124-R-J2-PDC colon carcinomas were obtained from the NCI Patient-Derived Models Repository (PDMR, https://pdmr.cancer.gov). The established cell lines NCI/ADR-RES (RRID:CVCL_14520 and OVCAR-5 (RRID:CVCL_1628) ovarian carcinomas, 786-O (RRID:CVCL_1051) and A498 (RRID:CVCL_A498) renal cell carcinoma, NCI-H211 (ATCC, cat. CRL-5824; RRID:CVCL_1529), NCI-H196 (ATCC, cat. CRL-5823, RRID:CVCL_1509), SW 1271 (ATCC, cat. CRL-2177, RRID:CVCL_1716) and NCI-H1876 (ATCC, cat. CRL-5902, RRID:CVCL_1503) small cell lung carcinomas, MDA-MB-231 (RRID:CVCL_0062) and MDA-MB-468 (RRID:CVCL_0419)breast carcinomas (10-12). Pooled donor human umbilical vein endothelial cells (HUVEC, Lonza, cat. CC-2519) and human mesenchymal stem cells (hMSC, Lonza, cat. PT-2501) were purchased from Lonza (Walkersville, MD).
Cell Culture. All cells were maintained in an incubator at 37 degrees C and 5% CO2 with 95% humidity. The PDC lines were cultured according to standard operating procedures established by the NCI PDMR (https://pdmr.cancer.gov). Briefly all PDCs were thawed and cultured in Matrigel-coated flasks prepared with a working solution of 1X Ham's F-12 nutrient mix, without supplementation (Invitrogen, Waltham, MA, cat. 11765054), 100 U/mL penicillin-streptomycin (Invitrogen, cat. 15140122), and 2.5% Matrigel (Corning Inc., Corning, NY, cat. 354248) for the first three passages. […]

[1] = second compound 0.1 µM, first compound 0.0316 µM
[2] = second compound 0.1 µM, first compound 0.1 µM
[3] = second compound 0.316 µM, first compound 0.0316 µM
[4] = second compound 0.316 µM, first compound 0.1 µM
[5] = second compound 1 µM, first compound 0.0316 µM
[6] = second compound 1 µM, first compound 0.1 µM
[7] = second compound 3.16 µM, first compound 0.0316 µM
[8] = second compound 3.16 µM, first compound 0.1 µM
[9] = second compound 10 µM, first compound 0.0316 µM
[10] = second compound 10 µM, first compound 0.1 µM
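Further: spheroids exposed to agents for seven days before readout.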

CC(C)c1c(-c2ccccc2)nc2c(C#N)c[nH]n2c1=O + NC1CC1c1ccc(-c2cccc(O)c2)cc1
< 5.00: pIC50 (second compound 0.1 µM) | pIC50 (second compound 0.316 µM) | pIC50 (second compound 1 µM) | pIC50 (second compound 3.16 µM) | pIC50 (second compound 10 µM)
inactive: viability, T/C [1] 126% | viability, T/C [2] 122% | viability, T/C (second compound 0.1 µM, first compound 0.316 µM) 119% | viability, T/C (second compound 0.1 µM, first compound 1 µM) 106% | viability, T/C (second compound 0.1 µM, first compound 3.16 µM) 111% | viability, T/C (second compound 0.1 µM, first compound 10 µM) 80.7% | viability, T/C [3] 95.6% | viability, T/C [4] 113% | viability, T/C (second compound 0.316 µM, first compound 0.316 µM) 118% | viability, T/C (second compound 0.316 µM, first compound 1 µM) 106% | viability, T/C (second compound 0.316 µM, first compound 3.16 µM) 98.7% | viability, T/C (second compound 0.316 µM, first compound 10 µM) 81.8% | viability, T/C [5] 114% | viability, T/C [6] 103% | viability, T/C (second compound 1 µM, first compound 0.316 µM) 120% | viability, T/C (second compound 1 µM, first compound 1 µM) 99.2% | viability, T/C (second compound 1 µM, first compound 3.16 µM) 95.7% | viability, T/C (second compound 1 µM, first compound 10 µM) 102% | viability, T/C [7] 104% | viability, T/C [8] 106% | viability, T/C (second compound 3.16 µM, first compound 0.316 µM) 111% | viability, T/C (second compound 3.16 µM, first compound 1 µM) 100% | viability, T/C (second compound 3.16 µM, first compound 3.16 µM) 104% | viability, T/C (second compound 3.16 µM, first compound 10 µM) 91.2% | viability, T/C [9] 86.1% | viability, T/C [10] 82.4% | viability, T/C (second compound 10 µM, first compound 0.316 µM) 86.7% | viability, T/C (second compound 10 µM, first compound 1 µM) 75.3% | viability, T/C (second compound 10 µM, first compound 3.16 µM) 62.5% | viability, T/C (second compound 10 µM, first compound 10 µM) 64.8%

CCc1c2c(nc3ccc(O)cc13)-c1cc3c(c(=O)n1C2)COC(=O)[C@]3(O)CC + NC1CC1c1ccc(-c2cccc(O)c2)cc1
> 9.02: pIC50 (second compound 0.1 µM) | pIC50 (second compound 0.316 µM) | pIC50 (second compound 1 µM) | pIC50 (second compound 3.16 µM) | pIC50 (second compound 10 µM)
active: viability, T/C (second compound 0.1 µM, first compound 0.000949 µM) 3.35% | viability, T/C (second compound 0.1 µM, first compound 0.003 µM) 2.46% | viability, T/C (second compound 0.1 µM, first compound 0.00949 µM) 1.32% | viability, T/C (second compound 0.1 µM, first compound 0.03 µM) 1.41% | viability, T/C (second compound 0.1 µM, first compound 0.0949 µM) 1.92% | viability, T/C (second compound 0.1 µM, first compound 0.3 µM) 1.96% | viability, T/C (second compound 0.316 µM, first compound 0.000949 µM) 3.19% | viability, T/C (second compound 0.316 µM, first compound 0.003 µM) 2.09% | viability, T/C (second compound 0.316 µM, first compound 0.00949 µM) 1.26% | viability, T/C (second compound 0.316 µM, first compound 0.03 µM) 1.31% | viability, T/C (second compound 0.316 µM, first compound 0.0949 µM) 1.59% | viability, T/C (second compound 0.316 µM, first compound 0.3 µM) 1.98% | viability, T/C (second compound 1 µM, first compound 0.000949 µM) 3.23% | viability, T/C (second compound 1 µM, first compound 0.003 µM) 2.09% | viability, T/C (second compound 1 µM, first compound 0.00949 µM) 1.23% | viability, T/C (second compound 1 µM, first compound 0.03 µM) 1.48% | viability, T/C (second compound 1 µM, first compound 0.0949 µM) 1.67% | viability, T/C (second compound 1 µM, first compound 0.3 µM) 1.92% | viability, T/C (second compound 3.16 µM, first compound 0.000949 µM) 3.45% | viability, T/C (second compound 3.16 µM, first compound 0.003 µM) 2.17% | viability, T/C (second compound 3.16 µM, first compound 0.00949 µM) 1.37% | viability, T/C (second compound 3.16 µM, first compound 0.03 µM) 1.52% | viability, T/C (second compound 3.16 µM, first compound 0.0949 µM) 1.8% | viability, T/C (second compound 3.16 µM, first compound 0.3 µM) 1.56% | viability, T/C (second compound 10 µM, first compound 0.000949 µM) 3.42% | viability, T/C (second compound 10 µM, first compound 0.003 µM) 1.99% | viability, T/C (second compound 10 µM, first compound 0.00949 µM) 1.52% | viability, T/C (second compound 10 µM, first compound 0.03 µM) 1.31% | viability, T/C (second compound 10 µM, first compound 0.0949 µM) 1.59% | viability, T/C (second compound 10 µM, first compound 0.3 µM) 1.47%

CC[C@@]1(O)C(=O)OCc2c1cc1n(c2=O)Cc2cc3c(CN(C)C)c(O)ccc3nc2-1 + NC1CC1c1ccc(-c2cccc(O)c2)cc1
8.31: pIC50 (second compound 0.316 µM)
8.32: pIC50 (second compound 1 µM)
8.30: pIC50 (second compound 0.1 µM)
active: viability, T/C [1] 5.55% | viability, T/C [2] 3.01% | viability, T/C [3] 4.91% | viability, T/C [4] 2.78% | viability, T/C (second compound 1 µM, first compound 0.01 µM) 10.1% | viability, T/C [5] 5.15% | viability, T/C [6] 2.6% | viability, T/C [7] 5.39% | viability, T/C [8] 2.8% | viability, T/C (second compound 10 µM, first compound 0.01 µM) 8.84% | viability, T/C [9] 5.04% | viability, T/C [10] 2.95%
8.42: pIC50 (second compound 10 µM)
8.33: pIC50 (second compound 3.16 µM)
inactive: viability, T/C (second compound 0.1 µM, first compound 0.000316 µM) 115% | viability, T/C (second compound 0.1 µM, first compound 0.001 µM) 108% | viability, T/C (second compound 0.1 µM, first compound 0.00316 µM) 74.8% | viability, T/C (second compound 0.1 µM, first compound 0.01 µM) 11.4% | viability, T/C (second compound 0.316 µM, first compound 0.000316 µM) 120% | viability, T/C (second compound 0.316 µM, first compound 0.001 µM) 116% | viability, T/C (second compound 0.316 µM, first compound 0.00316 µM) 74% | viability, T/C (second compound 0.316 µM, first compound 0.01 µM) 9.75% | viability, T/C (second compound 1 µM, first compound 0.000316 µM) 118% | viability, T/C (second compound 1 µM, first compound 0.001 µM) 116% | viability, T/C (second compound 1 µM, first compound 0.00316 µM) 72.4% | viability, T/C (second compound 3.16 µM, first compound 0.000316 µM) 122% | viability, T/C (second compound 3.16 µM, first compound 0.001 µM) 112% | viability, T/C (second compound 3.16 µM, first compound 0.00316 µM) 70.8% | viability, T/C (second compound 3.16 µM, first compound 0.01 µM) 10.1% | viability, T/C (second compound 10 µM, first compound 0.000316 µM) 91.9% | viability, T/C (second compound 10 µM, first compound 0.001 µM) 90.1% | viability, T/C (second compound 10 µM, first compound 0.00316 µM) 57.8%
